Data taken from US8247566B2, “Crystalline solvate of omeprazole sodium” (Lek Pharmaceuticals d.d., priority 2005, dated 2012).

How the values were obtained:
[1] = Solid state / storage stability; format: physicochemical
Source text: The stability of omeprazole sodium form A obtained by the processes of the present invention may be determined by standard protocol for characterisation of stability of a pharmaceutically active substance (EU: Adopted by CPMP, March 2003, issued as CPMP/ICH/2736/99—“Committee for proprietary medical products; Note for Guidance on ICH Q1A (R2) Stability testing guidelines: Stability testing of new drug substances and products”). Packed omeprazole sodium form A was aged for a definite period of time (1 month, 3 months, 6 months) under accelerated conditions of aging (at a temperature of 40° C. and 75% relative humidity which is a standard accelerated condition for stability testing of pharmaceutical formulations) and/or stress condition of aging (at a temperature of 60° C. which is a standard stress condition for stability testing of pharmaceutically active substances). Determination of absorbance measured according to the PhEur method (PhEur 3 Suppl 2000) was used as a criterion for evaluation of the sample quality during stability testing. It has previously been shown that measurement of absorbance is a more sensitive method for monitoring the process of omeprazole sodium decomposition than, for example, detection of present impurities using chromatographic methods (PhEur 3 Suppl 2000).

Solubility in water = format: physicochemical
[2] = prior art description (EP-B-124 495, US 6,207,188, US 2004/0224987); cited from earlier work
[3] = prior art description (US 6,207,188, US 2004/0224987); cited from earlier work

Compound: COc1ccc2[n-]c([S+]([O-])Cc3ncc(C)c(OC)c3C)nc2c1.[Na+] (centres unmarked) [omeprazole sodium form A, omeprazole sodium]
- stability on storage (chemical composition, hygroscopicity, solubility, crystalline form) [1]: stable
- solubility in water (Solubility in water): highly soluble in water

Compound: COc1ccc2[n-]c([S+]([O-])Cc3ncc(C)c(OC)c3C)nc2c1.O.[Na+] (centres unmarked) [omeprazole sodium form B, omeprazole sodium monohydrate salt]
- hygroscopicity as described in prior art [2]: non-hygroscopic
- thermodynamic stability as described in prior art [3]: thermodynamically stable

Compound: COc1ccc2[n-]c([S+]([O-])Cc3ncc(C)c(OC)c3C)nc2c1.[Na+] (centres unmarked) [omeprazole sodium form E, omeprazole sodium]
- stability under special conditions ([1]; stored under nitrogen atmosphere): stable compounds under special conditions
